{"source": "patent US20250230193A1", "about": "“CYCLIC COMPOUND HAVING SELECTIVE KRAS INHIBITORY EFFECT ON HRAS AND NRAS” (CHUGAI SEIYAKU KABUSHIKI KAISHA, priority 2022, published 2025)", "key": {"[1]": {"molecular_target": "GDP-bound NRAS wild-type protein (Homo sapiens, UniProt P01111)", "sequence (P01111 whole entry)": "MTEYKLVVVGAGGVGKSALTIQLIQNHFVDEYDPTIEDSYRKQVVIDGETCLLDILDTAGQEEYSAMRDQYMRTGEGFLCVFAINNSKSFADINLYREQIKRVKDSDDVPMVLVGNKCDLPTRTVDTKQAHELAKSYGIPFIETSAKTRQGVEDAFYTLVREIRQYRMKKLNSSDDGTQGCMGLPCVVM", "experiment": "Binding to NRAS by surface plasmon resonance (SPR), Single Cycle Kinetics"}, "[2]": {"molecular_target": "GDP-bound HRAS wild-type protein (Homo sapiens, UniProt P01112)", "sequence (P01112 whole entry)": "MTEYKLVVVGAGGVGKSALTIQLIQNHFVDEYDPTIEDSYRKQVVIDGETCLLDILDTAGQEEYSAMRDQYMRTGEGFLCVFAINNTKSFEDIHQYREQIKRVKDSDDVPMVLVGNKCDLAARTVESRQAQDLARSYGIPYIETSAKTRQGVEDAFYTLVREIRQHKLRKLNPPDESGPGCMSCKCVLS", "experiment": "Binding to HRAS by surface plasmon resonance (SPR), Single Cycle Kinetics"}, "[3]": {"settings": "KD ratio, GDP-bound NRAS wild-type vs GDP-bound KRAS wild-type, SPR"}, "[4]": {"settings": "KD ratio, GDP-bound HRAS wild-type vs GDP-bound KRAS wild-type, SPR"}, "[5]": {"settings": "KD ratio NRAS/KRAS, class symbols"}, "[6]": {"settings": "KD ratio HRAS/KRAS, class symbols"}}, "note": "Where a SMILES comes first, the peptide text is derived from it. Bridges are numbered along the chain shown (N, C = ends). [ ]: non-standard residue; d: D form. The star is where a group is joined. hPhe(3-Cl-4-CF3) = N[C@@H](CCc1ccc(C(F)(F)F)c(Cl)c1)C(=O)O; NPrPhe(4-CF3) = CCCN[C@@H](Cc1ccc(C(F)(F)F)cc1)C(=O)O; NEtPhe(4-Me) = CCN[C@@H](Cc1ccc(C)cc1)C(=O)O; NMeGly(cPent) = CN[C@H](C(=O)O)C1CCCC1; Pro(4,4-Me2) = CC1(C)CN[C@H](C(=O)O)C1; NMeD = CN[C@@H](CC(=O)O)C(=O)O; NMeL = CN[C@@H](CC(C)C)C(=O)O; Morpholide = C1CN(*)CCO1; Ac5c = NC1(C(=O)O)CCCC1; Sar = CNCC(=O)O", "data": [{"smiles": "CCO[C@@H]1C[C@H]2C(=O)NC3(CCC3)C(=O)N(C)[C@@H](C3CCCC3)C(=O)N(C)[C@H](C(=O)N3CCOCC3)CC(=O)N(C)[C@@H](CC(C)C)C(=O)N[C@@H]([C@@H](C)CC)C(=O)N(C)CC(=O)N(C)[C@H]3CCCCCN(C3=O)[C@@H](Cc3ccc4sccc4c3)C(=O)N(C)CC(=O)N[C@@H](CCc3cc(F)c(C(F)(F)F)c(F)c3)C(=O)N2C1", "note": "[PP0920]", "values": [{"measurement": "NRAS/KRAS (ratio of KD value with respect to NRAS to KD value with respect to KRAS)", "setting": "[1]; [3]", "result": "B (a compound having 3 or more and less than 10 is denoted as B)"}, {"measurement": "HRAS/KRAS (ratio of KD value with respect to HRAS to KD value with respect to KRAS)", "setting": "[2]; [4]", "result": "B (a compound having 3 or more and less than 10 is denoted as B)"}]}, {"smiles": "C=CC[C@H]1C(=O)N[C@@H]([C@@H](C)CC)C(=O)N(C)CC(=O)N(C)[C@H]2CCCCN(C2=O)[C@@H](Cc2ccc(C(F)(F)F)cc2)C(=O)N(C)CC(=O)N[C@@H](CCc2cc(F)c(C(F)(F)F)c(F)c2)C(=O)N2C[C@H](OCC)C[C@H]2C(=O)NC2(CCC2)C(=O)N(C)[C@@H](C2CCCC2)C(=O)N(C)[C@H](C(=O)N(C)C)CC(=O)N1C", "note": "[PP0695]", "values": [{"measurement": "NRAS/KRAS (ratio of KD value with respect to GDP-bound NRAS wild-type protein to KD value with respect to KRAS)", "setting": "[1]; KD ratio NRAS/KRAS, SPR", "result": "C (A compound having a KD ratio of 0.1 or more and less than 3 is denoted as C)"}, {"measurement": "HRAS/KRAS (ratio of KD value with respect to GDP-bound HRAS wild-type protein to KD value with respect to KRAS)", "setting": "[2]; KD ratio HRAS/KRAS, SPR", "result": "C (A compound having a KD ratio of 0.1 or more and less than 3 is denoted as C)"}]}, {"smiles": "C#CC[C@H]1C(=O)N[C@@H]([C@@H](C)CC)C(=O)N(C)CC(=O)N(C)[C@H]2C/C=C\\CCN(C2=O)[C@@H](Cc2ccc(C(F)(F)F)cc2)C(=O)N(C)CC(=O)N[C@@H](CCc2cc(F)c(C(F)(F)F)c(F)c2)C(=O)N2C[C@@H](C)C[C@H]2C(=O)NC2(CC(C)(C)C2)C(=O)N(C)[C@@H](C2CCCC2)C(=O)N(C)[C@H](C(=O)N(C)CC)CC(=O)N1C", "note": "[PP2075]", "values": [{"measurement": "NRAS/KRAS (ratio of KD value with respect to NRAS to KD value with respect to KRAS)", "setting": "[1]; SPR, GDP-bound NRAS wild-type vs GDP-bound KRAS wild-type", "result": "A (a compound having 10 or more and less than 20 is denoted as A)"}, {"measurement": "HRAS/KRAS (ratio of KD value with respect to HRAS to KD value with respect to KRAS)", "setting": "[2]; SPR, GDP-bound HRAS wild-type vs GDP-bound KRAS wild-type", "result": "A (a compound having 10 or more and less than 20 is denoted as A)"}]}, {"smiles": "CCC[C@H]1C(=O)N[C@@H]([C@@H](C)CC)C(=O)N(C)CC(=O)N(C)[C@H]2C/C=C\\CCN(C2=O)[C@@H](Cc2ccc(C)cc2)C(=O)N(C)CC(=O)N[C@@H](CCc2ccc3sc(F)c(C)c3c2)C(=O)N2C[C@H](OCC)C[C@H]2C(=O)NC2(CC(C)(C)C2)C(=O)N(C)[C@@H](C2CCCC2)C(=O)N(C)[C@H](C(=O)N(C)C)CC(=O)N1C", "note": "[PP2949]", "values": [{"measurement": "NRAS/KRAS (ratio of KD value with respect to GDP-bound NRAS wild-type protein to KD value with respect to KRAS)", "setting": "[1]; [5]", "result": "A (a compound having 10 or more and less than 20 is denoted as A)"}, {"measurement": "HRAS/KRAS (ratio of KD value with respect to GDP-bound HRAS wild-type protein to KD value with respect to KRAS)", "setting": "[2]; [6]", "result": "A (a compound having 10 or more and less than 20 is denoted as A)"}]}, {"smiles": "CCO[C@@H]1C[C@H]2C(=O)NC3(CCC3)C(=O)N(C)[C@@H](C(CC)CC)C(=O)N(C)[C@H](C(=O)N3CCCC3)CC(=O)N(C)[C@H]3CCC/C=C/c4ccc(cc4)C[C@@H](C(=O)N(C)CC(=O)N[C@@H](CCc4cc(F)c(C(F)(F)F)c(F)c4)C(=O)N2C1)N1CC/C=C\\C[C@@H](C1=O)N(C)C(=O)CN(C1CC1)C(=O)[C@H]([C@@H](C)CC)NC3=O", "note": "[PP2957]", "values": [{"measurement": "NRAS/KRAS (ratio of KD value with respect to GDP-bound NRAS wild-type protein to KD value with respect to KRAS)", "setting": "[1]; [5]", "result": "AA (a compound having 20 or more is denoted as AA)"}, {"measurement": "HRAS/KRAS (ratio of KD value with respect to GDP-bound HRAS wild-type protein to KD value with respect to KRAS)", "setting": "[2]; [6]", "result": "A (a compound having 10 or more and less than 20 is denoted as A)"}]}, {"smiles": "CC[C@H](C)[C@@H]1NC(=O)[C@H](CC(C)C)N(C)C(=O)C[C@@H](C(=O)N2CCOCC2)N(C)C(=O)[C@H](C2CCCC2)N(C)C(=O)C2(CCCC2)NC(=O)[C@@H]2CCCN2C(=O)[C@H](CCc2ccc(C(F)(F)F)c(Cl)c2)NC(=O)CN(C)C(=O)[C@H](Cc2ccc(C)cc2)N(CC)C(=O)CN(C)C(=O)CN(C)C1=O", "note": "[PP0022] ([NMeL]I[Sar][Sar][NEtPhe(4-Me)][Sar][hPhe(3-Cl-4-CF3)]P[Ac5c][NMeGly(cPent)][NMeD]-Morpholide; lactam N-11)", "values": [{"measurement": "NRAS/KRAS (ratio of KD for GDP-bound NRAS wild-type to KD for KRAS)", "setting": "[1]; KD ratio NRAS/KRAS, SPR", "result": "B (a compound having 3 or more and less than 10 is denoted as B)"}, {"measurement": "HRAS/KRAS (ratio of KD for GDP-bound HRAS wild-type to KD for KRAS)", "setting": "[2]; KD ratio HRAS/KRAS, SPR", "result": "C (A compound having a KD ratio of 0.1 or more and less than 3 is denoted as C)"}]}, {"smiles": "CCCN1C(=O)CN(C)C(=O)CN(C)C(=O)[C@H]([C@@H](C)CC)NC(=O)[C@H](CC(C)C)N(C)C(=O)C[C@@H](C(=O)N2CCOCC2)N(C)C(=O)[C@H](C2CCCC2)N(C)C(=O)C2(CCCC2)NC(=O)[C@@H]2CC(C)(C)CN2C(=O)[C@H](CCc2ccc(C(F)(F)F)c(Cl)c2)NC(=O)CN(C)C(=O)[C@@H]1Cc1ccc(C(F)(F)F)cc1", "note": "[PP0446] ([NMeL]I[Sar][Sar][NPrPhe(4-CF3)][Sar][hPhe(3-Cl-4-CF3)][Pro(4,4-Me2)][Ac5c][NMeGly(cPent)][NMeD]-Morpholide; lactam N-11)", "values": [{"measurement": "NRAS/KRAS (ratio of KD value with respect to GDP-bound NRAS wild-type protein to KD value with respect to KRAS)", "setting": "[1]; KD ratio NRAS/KRAS, SPR", "result": "B (a compound having 3 or more and less than 10 is denoted as B)"}, {"measurement": "HRAS/KRAS (ratio of KD value with respect to GDP-bound HRAS wild-type protein to KD value with respect to KRAS)", "setting": "[2]; KD ratio HRAS/KRAS, SPR", "result": "C (A compound having a KD ratio of 0.1 or more and less than 3 is denoted as C)"}]}, {"smiles": "CC[C@H](C)[C@@H]1NC(=O)[C@H](CC)N(C)C(=O)C[C@@H](C(=O)N(C)C)N(C)C(=O)[C@H](C2CCCC2)N(C)C(=O)C2(CCCC2)N(C)C(=O)[C@@H]2CCCN2C(=O)[C@H](CCc2cc(F)c(C(F)(F)F)c(F)c2)NC(=O)CN(C)C(=O)[C@H](Cc2ccc(C(F)(F)F)cc2)N2CC/C=C\\C[C@@H](C2=O)N(C)C(=O)CN(C)C1=O", "note": "[PP1805]", "values": [{"measurement": "NRAS/KRAS (ratio of KD value for NRAS to KD value for KRAS)", "setting": "[1]; [3]", "result": "A (a compound having 10 or more and less than 20 is denoted as A)"}, {"measurement": "HRAS/KRAS (ratio of KD value for HRAS to KD value for KRAS)", "setting": "[2]; [4]", "result": "A (a compound having 10 or more and less than 20 is denoted as A)"}]}]}
